Assay results: article PMC3833878, “In Silico Molecular Comparisons of C. elegans and Mammalian Pharmacology Identify Distinct Targets That Regulate Feeding” (PLoS Biology, 2013)

Columns and labels:
PPAR-γ = molecular target: T1, PPAR-γ (Homo sapiens, UniProt P37231); assay: Radioligand binding assay, 3H-Rosiglitazone binding to PPAR-γ (CEREP)
T1 construct: CEREP, Inc. (assay run by the contract laboratory)
Method: (§1) Tachykinin, ghrelin, and calcium-sensing receptor activity were measured using a cell-based Ca flux assay by Multispan, Inc. (Hayward, California). Cholescystokinin A and B receptors were assayed for effects on cAMP production, and nicotinic acid receptor activity was measured in a cell-based assay of forskolin-stimulated cAMP production by Multispan, Inc. […], PP2A phosphatase activity assays were performed by CEREP (Celle l'Evescault, France) using PP2A from human erythrocytes. Phospholipase C from Bacillus cereus was assayed by CEREP, Inc. using glycero-phosphatidyl ethanolamine as a substrate, monitoring diacyl glycerol production. Radioligand binding assays for PPAR-α, γ, δ and the androgen receptor were performed by CEREP, Inc. CARNA Biosciences (Kobe, Japan) performed in vitro kinase activity assays using recombinant catalytic domains and measured phosphorylation of an Src-derived peptide for Flt-3 and phosphatidyl inositol for PI3KCA. Radioligand binding assays for the oxytocin receptor, D4 dopamine receptor, cannabinoid CB2 receptor, and angiotensin type I and II receptors were performed as described previously, as were cell-based activity assays for mGluR 1a, 2, 4, 5, 6, and 8 [60]–[62].
Supplementary file pbio.1001712.s003.tif: Figure S3 Dose-response relationships for compounds that bind nuclear hormone receptors. […]

oxytocin receptor = oxytocin receptor (Homo sapiens, UniProt P30559); assay: Radioligand binding assay, 3H-oxytocin binding to the oxytocin receptor
Method: as §1
(§2) Supplementary file pbio.1001712.s001.tif: Figure S1 Dose-response measurements that validate SEA predictions for GPCRs. […]

C. elegans = test system: C. elegans; design: method as in earlier work; conditions: earlier phenotypic screen ref 11; cited from earlier work
[1] = test system: gnrr-1(ok238) mutant C. elegans; assay: Pharyngeal pumping assay, compound on high-feeding mutant; assay type: in vivo; conditions: to C. elegans gnrr-1 (F54D7.3), homolog of human Oxtr
Method: (§3) Compounds at 1,000× stock concentrations (0.1–10 mM) in DMSO or an equal volume of DMSO were diluted in a suspension of E. coli OP-50 (100 µl of a 3× concentrated overnight culture in LB broth) and absorbed as a single drop onto 3.5 cm plates containing 2.5 ml of NGM agar forming a well-defined lawn of bacteria. For developmental exposures, 20–30 synchronized first larval stage C. elegans derived from alkaline hypochlorite treatment of gravid adults were applied to the preseeded plates and cultured until assay at mid-L4 stage (2 d, 20°C) or as day 1 gravid adults (3 d, 20°C). For naïve adult exposures, synchronized first larval stage animals were cultured on NGM-agar plates seeded with E. coli OP-50 for 3 d at 20°C, then transferred to assay plates, and pumping was assayed 1 to 16 h later. Comparisons between vehicle-treated and compound-treated animals were always performed between animals at the same developmental stage and same exposure time. Pharyngeal pumping was counted by live observation at 115–200× magnification using a stereo microscope and recorded at 10 s intervals using a manually controlled digital cell counter. Alternatively, C. elegans pumping was recorded for longer intervals (30–60 s) using bright-field time-lapse microscopy at 120× magnification with a 20 images per second acquisition rate. The resulting movies were analyzed manually at a playback rate of 10 images per second.
(§4) Significance was determined by one-way ANOVA applying a Dunnett's posttest when comparing multiple treatments to a single control and a Bonferroni posttest when comparing the more than two treatments against one another. For pairwise nonrepeated measured comparisons, a student's t test was used. To express data as a percentage of control, the pumping rates of compound-treated animals were divided by the mean pumping rate of the DMSO-treated wild-type animals measured in the same experiment, unless indicated otherwise. Error bars on the control samples indicate the variation around that mean, which is utilized in all statistical calculations.
(§5) The pumping rates are expressed as a percentage of the mutant’s pumping rate on DMSO, the vehicle control. p-values were calculated relative to DMSO treatment of each mutant by one-way ANOVA using Dunnett’s multiple comparison test.

wild-type C. elegans = assay: Pharyngeal pumping assay; assay type: in vivo; conditions: for increase in pharyngeal pumping / exposure time after which the feeding elevating effect was notable: 10 µM; for increase in pharyngeal pumping: cultured 3 d from L1, long-term video (60 s) and short-term manual (10 s) measurements; for exposure time after which the feeding elevating effect was notable: naïve day 1 gravid adults; for EC50: Caenorhabditis elegans, read-out: EC50 of the dose-dependent increase in the pharyngeal pumping rate; for effect on the pharyngeal pumping rate: 10 µM versus 0.1% DMSO
Method: as §3, §4

androgen receptor = androgen receptor (Homo sapiens, UniProt P10275); assay: Radioligand binding assay, 3H-Mibolerone binding to the androgen receptor (CEREP)
Method: as §1, with “[60]-[62]. Supplementary file pbio.1001712.s003.tif: Figure S3 Dose-response relationships for compounds that bind nuclear hormone receptors. […]” for “[60]–[62].”

flt-3 receptor (CD135) = molecular target: T2, flt-3 receptor (CD135) (Homo sapiens, UniProt P36888); assay: In vitro kinase activity assay, recombinant Flt-3 receptor catalytic domain, srctide phosphorylation (CARNA); assay type: biochemical
T2 construct: Flt-3 receptor catalytic domain (amino acids 564–993); purchased CARNA Biosciences (Kobe, Japan)
Method: as §1, with “Radioligand binding assays for the oxytocin receptor, D4 dopamine receptor, cannabinoid CB2 receptor, and angiotensin type I and II receptors were performed as described previously, as were cell-based activity assays for mGluR 1a, 2, 4, 5, 6, and 8 [60]–[62].” left out
(§6) Supplementary file pbio.1001712.s002.tif: Figure S2 Dose-dependent inhibitory activity for compounds predicted by SEA to inhibit kinases. (A–B) Varying concentrations of J6 and L10 were incubated with full-length recombinant human PI3KCA and ATP (50 µM) for 5 h and the phosphorylation level of the substrate phosphatidylinositol was measured. […]

[2] = test system: ver-3(ok891) mutant C. elegans; assay: Pharyngeal pumping assay, compound on high-feeding mutant; assay type: in vivo; conditions: to C. elegans ver-3 (F59F3.1), homolog of human Flt-3 receptor
Method: as §3, §4, §5

dopamine receptor D4 = dopamine receptor D4 (Homo sapiens, UniProt P21917); assay: Radioligand binding assay, 3H-risperidone binding to the dopamine D4 receptor
Method: as §1, §2

PI3K p110α = molecular target: T3, PI3K p110α (Homo sapiens, UniProt P42336); assay: In vitro kinase activity assay, recombinant PI3KCA, phosphatidylinositol phosphorylation (CARNA); assay type: biochemical; conditions: marked with footnote d in Figure 2; 50 µM ATP, 5 h
T3 construct: full-length recombinant human PI3KCA; purchased CARNA Biosciences (Kobe, Japan)
T3 sequence (P42336 whole entry): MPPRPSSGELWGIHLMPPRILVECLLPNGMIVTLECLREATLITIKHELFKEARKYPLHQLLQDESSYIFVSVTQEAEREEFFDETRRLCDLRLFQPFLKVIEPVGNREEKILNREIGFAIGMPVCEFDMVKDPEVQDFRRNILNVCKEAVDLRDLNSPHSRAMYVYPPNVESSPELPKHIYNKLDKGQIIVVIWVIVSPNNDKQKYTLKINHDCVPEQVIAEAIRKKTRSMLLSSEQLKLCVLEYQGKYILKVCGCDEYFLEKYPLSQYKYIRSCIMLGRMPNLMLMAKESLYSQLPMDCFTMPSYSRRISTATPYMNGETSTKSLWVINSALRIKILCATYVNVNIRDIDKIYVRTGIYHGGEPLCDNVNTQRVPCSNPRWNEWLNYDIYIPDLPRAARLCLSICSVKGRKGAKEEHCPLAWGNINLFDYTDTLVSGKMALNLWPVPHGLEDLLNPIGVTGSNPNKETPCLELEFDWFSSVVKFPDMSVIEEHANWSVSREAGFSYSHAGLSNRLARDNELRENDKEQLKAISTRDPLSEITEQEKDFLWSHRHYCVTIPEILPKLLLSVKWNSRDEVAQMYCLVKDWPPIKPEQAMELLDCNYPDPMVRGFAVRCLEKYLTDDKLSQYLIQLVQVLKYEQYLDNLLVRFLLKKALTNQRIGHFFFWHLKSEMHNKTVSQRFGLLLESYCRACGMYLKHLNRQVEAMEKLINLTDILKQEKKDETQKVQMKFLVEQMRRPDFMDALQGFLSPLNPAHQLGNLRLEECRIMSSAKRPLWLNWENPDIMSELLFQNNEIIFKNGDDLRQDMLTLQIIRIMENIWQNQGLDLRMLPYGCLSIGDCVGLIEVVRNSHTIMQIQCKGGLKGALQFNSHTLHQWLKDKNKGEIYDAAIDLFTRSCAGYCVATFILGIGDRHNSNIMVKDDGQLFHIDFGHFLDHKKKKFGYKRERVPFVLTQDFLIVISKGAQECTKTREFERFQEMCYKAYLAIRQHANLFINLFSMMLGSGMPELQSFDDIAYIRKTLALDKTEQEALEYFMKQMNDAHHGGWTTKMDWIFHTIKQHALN
T3 sequence (P27986 whole entry partner): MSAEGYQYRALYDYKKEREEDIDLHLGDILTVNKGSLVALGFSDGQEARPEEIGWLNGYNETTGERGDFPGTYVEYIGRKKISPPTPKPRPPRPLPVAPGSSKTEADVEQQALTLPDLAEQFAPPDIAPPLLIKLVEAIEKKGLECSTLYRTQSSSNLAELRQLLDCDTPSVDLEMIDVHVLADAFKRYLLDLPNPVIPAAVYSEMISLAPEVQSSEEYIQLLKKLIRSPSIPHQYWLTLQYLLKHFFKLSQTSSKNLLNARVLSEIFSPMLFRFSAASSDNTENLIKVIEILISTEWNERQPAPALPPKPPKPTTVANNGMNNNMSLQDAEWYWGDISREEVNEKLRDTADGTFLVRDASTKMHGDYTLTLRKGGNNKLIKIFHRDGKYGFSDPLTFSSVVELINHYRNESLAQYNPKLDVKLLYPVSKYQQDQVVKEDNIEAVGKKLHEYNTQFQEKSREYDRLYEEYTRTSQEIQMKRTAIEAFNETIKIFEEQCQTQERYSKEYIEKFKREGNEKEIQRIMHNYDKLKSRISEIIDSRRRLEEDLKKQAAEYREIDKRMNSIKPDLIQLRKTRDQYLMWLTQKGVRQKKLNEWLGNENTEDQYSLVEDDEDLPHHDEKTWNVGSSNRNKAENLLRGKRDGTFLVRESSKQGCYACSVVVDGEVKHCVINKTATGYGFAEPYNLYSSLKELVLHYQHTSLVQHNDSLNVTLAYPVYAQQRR
Method: as §1, with “Radioligand binding assays for the oxytocin receptor, D4 dopamine receptor, cannabinoid CB2 receptor, and angiotensin type I and II receptors were performed as described previously, as were cell-based activity assays for mGluR 1a, 2, 4, 5, 6, and 8 [60]–[62].” left out
as §6

mglur-8 = molecular target: T4, mglur-8 (Rattus norvegicus, UniProt P70579); assay: Cell-based mGluR-8 activity assay, CHO cells stimulated with 1 µM L-AP4, concentration response
T4 construct: expressed in transfected cells; host or cells: CHO cells
Method: as §1, §2

MGLUR1a = molecular target: T5, MGLUR1a (Homo sapiens, UniProt Q13255); assay: Cell-based mGluR activity assay; conditions: 10 µM B16
T5 construct: expressed in transfected cells
T5 sequence (Q13255 19-1194): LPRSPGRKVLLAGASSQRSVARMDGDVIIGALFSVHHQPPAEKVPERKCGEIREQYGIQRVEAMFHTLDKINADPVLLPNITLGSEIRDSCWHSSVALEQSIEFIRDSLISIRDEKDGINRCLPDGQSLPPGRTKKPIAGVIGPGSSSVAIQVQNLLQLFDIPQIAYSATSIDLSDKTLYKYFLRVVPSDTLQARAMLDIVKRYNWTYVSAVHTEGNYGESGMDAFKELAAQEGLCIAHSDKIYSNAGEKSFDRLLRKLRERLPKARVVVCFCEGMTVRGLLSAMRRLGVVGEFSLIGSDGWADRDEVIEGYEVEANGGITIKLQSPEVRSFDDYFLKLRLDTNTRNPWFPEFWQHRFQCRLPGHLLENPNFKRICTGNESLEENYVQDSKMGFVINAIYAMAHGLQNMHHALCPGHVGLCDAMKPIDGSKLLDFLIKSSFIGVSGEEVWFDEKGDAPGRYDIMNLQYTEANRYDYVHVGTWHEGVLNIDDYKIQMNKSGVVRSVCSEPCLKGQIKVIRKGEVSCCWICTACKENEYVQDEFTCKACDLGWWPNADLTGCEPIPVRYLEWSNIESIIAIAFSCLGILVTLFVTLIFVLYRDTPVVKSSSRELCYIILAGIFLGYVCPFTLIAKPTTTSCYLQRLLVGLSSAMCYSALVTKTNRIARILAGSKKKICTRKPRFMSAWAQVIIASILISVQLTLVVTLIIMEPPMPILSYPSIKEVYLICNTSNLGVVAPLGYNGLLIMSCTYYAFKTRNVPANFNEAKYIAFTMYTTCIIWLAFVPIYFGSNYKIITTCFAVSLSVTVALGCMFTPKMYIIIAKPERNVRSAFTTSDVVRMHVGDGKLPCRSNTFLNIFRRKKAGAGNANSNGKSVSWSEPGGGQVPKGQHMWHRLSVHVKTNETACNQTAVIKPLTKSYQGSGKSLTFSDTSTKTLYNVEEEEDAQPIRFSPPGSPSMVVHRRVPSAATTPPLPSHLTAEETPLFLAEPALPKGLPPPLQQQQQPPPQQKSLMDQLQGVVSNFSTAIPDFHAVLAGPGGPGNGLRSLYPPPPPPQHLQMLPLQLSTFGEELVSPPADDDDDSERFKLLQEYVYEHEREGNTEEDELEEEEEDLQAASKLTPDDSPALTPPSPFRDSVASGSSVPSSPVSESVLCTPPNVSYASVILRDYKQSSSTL
Method: as §1
(§7) Table S2. Activity of 10 µM B16 on human metabotropic glutamate receptors.
(§8) ^a Data are normalized to the maximum response of cells treated with 1 mM glutamate or 0.1 mM AP4 alone.
(§9) ^b Percent difference in maximum activity of cells treated with glutamate or AP4 with B16 vehicle versus concurrent treatment with 10 µM B16.

MGLUR2 = molecular target: T6, MGLUR2 (Homo sapiens, UniProt Q14416); assay: Cell-based mGluR activity assay; conditions: 10 µM B16
T6 construct: expressed in transfected cells
Method: as §1, §7, §8, §9

MGLUR6 = molecular target: T7, MGLUR6 (Homo sapiens, UniProt O15303); assay: Cell-based mGluR activity assay; conditions: 10 µM B16
T7 construct: expressed in transfected cells
Method: as §1, §7, §8, §9

MGLUR5 = molecular target: T8, MGLUR5 (Homo sapiens, UniProt P41594); assay: Cell-based mGluR activity assay
T8 construct: expressed in transfected cells
T8 sequence (P41594 21-1212): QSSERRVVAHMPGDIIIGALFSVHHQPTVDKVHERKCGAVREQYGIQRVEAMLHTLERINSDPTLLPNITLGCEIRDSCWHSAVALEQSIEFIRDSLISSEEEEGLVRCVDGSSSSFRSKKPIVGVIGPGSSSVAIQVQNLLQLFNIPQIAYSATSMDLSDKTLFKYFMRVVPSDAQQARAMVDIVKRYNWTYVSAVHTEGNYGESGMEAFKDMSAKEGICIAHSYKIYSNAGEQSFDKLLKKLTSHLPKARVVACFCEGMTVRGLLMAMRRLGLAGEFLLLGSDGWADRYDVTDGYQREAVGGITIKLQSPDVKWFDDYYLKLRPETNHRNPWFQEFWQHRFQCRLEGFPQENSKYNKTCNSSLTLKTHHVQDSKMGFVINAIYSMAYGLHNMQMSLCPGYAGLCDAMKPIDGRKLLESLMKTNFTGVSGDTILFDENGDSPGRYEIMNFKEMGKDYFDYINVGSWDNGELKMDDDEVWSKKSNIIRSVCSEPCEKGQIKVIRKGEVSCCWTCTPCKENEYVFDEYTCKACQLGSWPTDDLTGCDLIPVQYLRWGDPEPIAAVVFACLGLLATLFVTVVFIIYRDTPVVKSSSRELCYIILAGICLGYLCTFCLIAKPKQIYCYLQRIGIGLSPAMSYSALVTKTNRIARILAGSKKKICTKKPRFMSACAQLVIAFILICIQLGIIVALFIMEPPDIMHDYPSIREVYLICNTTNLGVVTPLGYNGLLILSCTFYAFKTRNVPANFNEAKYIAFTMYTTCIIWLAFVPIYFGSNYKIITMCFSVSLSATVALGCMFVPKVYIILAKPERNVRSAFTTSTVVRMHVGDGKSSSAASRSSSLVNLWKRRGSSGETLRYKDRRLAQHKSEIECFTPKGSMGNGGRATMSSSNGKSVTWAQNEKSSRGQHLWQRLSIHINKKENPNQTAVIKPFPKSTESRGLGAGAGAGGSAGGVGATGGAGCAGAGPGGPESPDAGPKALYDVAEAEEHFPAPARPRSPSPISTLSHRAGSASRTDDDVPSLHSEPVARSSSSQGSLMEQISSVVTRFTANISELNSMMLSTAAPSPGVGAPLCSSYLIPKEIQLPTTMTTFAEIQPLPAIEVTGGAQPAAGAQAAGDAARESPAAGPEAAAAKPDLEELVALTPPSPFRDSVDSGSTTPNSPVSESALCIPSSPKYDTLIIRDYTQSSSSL
Method: as §1, §7, §8, §9

MGLUR4 = molecular target: T9, MGLUR4 (Homo sapiens, UniProt Q14833); assay: Cell-based mGluR activity assay; conditions: 10 µM B16
T9 construct: expressed in transfected cells
T9 sequence (Q14833 33-912): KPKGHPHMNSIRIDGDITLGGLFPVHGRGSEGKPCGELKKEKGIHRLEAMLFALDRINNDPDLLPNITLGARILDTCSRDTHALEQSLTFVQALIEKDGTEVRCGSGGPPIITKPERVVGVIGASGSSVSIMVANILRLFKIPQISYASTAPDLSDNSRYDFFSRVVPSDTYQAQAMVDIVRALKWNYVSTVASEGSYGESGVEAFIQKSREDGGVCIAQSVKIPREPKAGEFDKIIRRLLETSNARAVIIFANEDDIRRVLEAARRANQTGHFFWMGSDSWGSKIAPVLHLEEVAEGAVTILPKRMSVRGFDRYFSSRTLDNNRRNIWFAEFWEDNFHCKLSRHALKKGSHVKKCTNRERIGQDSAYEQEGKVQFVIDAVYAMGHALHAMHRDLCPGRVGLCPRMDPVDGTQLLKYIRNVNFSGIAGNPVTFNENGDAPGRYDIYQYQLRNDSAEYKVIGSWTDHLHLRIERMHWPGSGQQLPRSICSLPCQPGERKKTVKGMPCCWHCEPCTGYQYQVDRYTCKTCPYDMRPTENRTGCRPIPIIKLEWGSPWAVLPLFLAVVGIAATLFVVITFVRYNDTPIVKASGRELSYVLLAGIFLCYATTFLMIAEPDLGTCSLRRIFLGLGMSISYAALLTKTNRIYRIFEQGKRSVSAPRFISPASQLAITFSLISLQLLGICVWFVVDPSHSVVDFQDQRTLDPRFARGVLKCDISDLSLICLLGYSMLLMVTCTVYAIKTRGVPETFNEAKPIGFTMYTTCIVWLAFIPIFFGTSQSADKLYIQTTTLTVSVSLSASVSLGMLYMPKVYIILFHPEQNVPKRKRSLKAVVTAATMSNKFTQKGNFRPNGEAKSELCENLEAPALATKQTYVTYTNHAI
Method: as §1, §7, §8, §9

MGLUR8 = assay: Cell-based mGluR activity assay; design: species or system human; conditions: 10 µM B16
Method: as §1
Table S2. Activity of 10 µM B16 on human metabotropic glutamate receptors. […]

[3] = test system: mgl-2(tm355) mutant C. elegans; assay: Pharyngeal pumping assay, compound on high-feeding mutant; assay type: in vivo; conditions: to C. elegans mgl-2 (F45H11.4), homolog of human mGluR-8
Method: as §3, §4, §5

[4] = wild-type, serial 3-fold dilutions
[5] = normalized to the maximum response of cells treated with 1 mM glutamate or 0.1 mM AP4 alone
[6] = percent difference in maximum activity of cells treated with glutamate or AP4 with vehicle versus B16

Q: With `O=C(Nc1ccccc1C(=O)O)c1ccc(Br)c(S(=O)(=O)N2CCCCC2)c1` [I10] as the molecule, how does the Ki (PPAR-γ) read?
A: Its Ki is 1.3 µM.

Q: With `COc1ccc(N(CC(=O)NCc2ccco2)S(=O)(=O)c2ccccc2)cc1Cl` [F15] as the molecule, how does the Ki (oxytocin receptor) read?
A: The Ki was 1.8 µM.

Q: And the “Nile Red staining” value (C. elegans)?
A: Its value is “decreased”.

Q: What about the Pharmacological relationship [1] of the same molecule?
A: The Pharmacological relationship was “antagonist”.

Q: What about the “increase in pharyngeal pumping” value (wild-type C. elegans) of the same molecule?
A: Its value is 7%–12%.

Q: And the “exposure time after which the feeding elevating effect was notable” value (“exposure time” for short) (wild-type C. elegans)?
A: The value was ≤ 1 h.

Q: And the EC50 (wild-type C. elegans; [4])?
A: The EC50 was 0.4 µM.

Q: What about the “effect on the pharyngeal pumping rate” value (wild-type C. elegans; wild-type) of the same molecule?
A: Its value is “increased”.

Q: For `CC12C(=O)N(c3ccc(Cl)c(Cl)c3)C(=O)C1C1C=CC2C1` (centres unmarked) [G6], which Ki (androgen receptor) is on record?
A: The Ki was 0.0086 µM.

Q: Which Ki (flt-3 receptor (CD135); marked with footnote d in Figure 2, 100 µM ATP, 1 h) does the source give for `Cc1sc(NC(=O)c2ccccc2Br)c(C(N)=O)c1C` [D20] here?
A: Its Ki is 0.169 µM.

Q: And the “Nile Red staining” value (C. elegans)?
A: The value was “decreased”.

Q: And the Pharmacological relationship [2]?
A: The Pharmacological relationship was “antagonist”.

Q: What about the “increase in pharyngeal pumping” value (wild-type C. elegans) of the same molecule?
A: The value was 7%–12%.

Q: What about the “exposure time” value (wild-type C. elegans) of the same molecule?
A: The value was ≤ 1 h.

Q: And the EC50 (wild-type C. elegans; [4])?
A: The EC50 was 0.6 µM.

Q: What about the “effect on the pharyngeal pumping rate” value (wild-type C. elegans; wild-type) of the same molecule?
A: The value was “increased”.

Q: For `CC[C@H](NC(=O)c1c(C)c(-c2ccccc2)nc2ccccc12)c1ccccc1` [SB222200, reference compound], which effect on feeding (wild-type C. elegans; wild-type, 200 nM) is on record?
A: The effect on feeding was “increased feeding”.

Q: For `O=C(CN1CCN(c2ccccc2)CC1)Nc1cc(C(F)(F)F)ccc1Cl` [G7], which Ki (dopamine receptor D4) is on record?
A: The Ki was 1.9 µM.

Q: With `O=C1NC(=O)/C(=C\c2ccc(-c3cccc(Br)c3)o2)S1` [L10] as the molecule, how does the Ki (PI3K p110α) read?
A: Its Ki is 2.9 µM.

Q: Which results are given for `CC1CCc2c(sc(NC(=O)c3cccs3)c2C(N)=O)C1` (centres unmarked) [K9]?
A: activity on the predicted mammalian target Flt-3 kinase in vitro (flt-3 receptor (CD135); Table S1 (not readable)): fail to modulate; effect on feeding rate (wild-type C. elegans; [4]): dose-dependent increase

Q: For `Cc1nc(N2CCOCC2)c2oc3ccccc3c2n1` [J6], which Ki (PI3K p110α) is on record?
A: The Ki was 4.6 µM.

Q: With `Cc1cc(C)c2c(N)c(C(=O)Nc3ccccn3)sc2n1` [B16] as the molecule, how does the Ki (mglur-8) read?
A: The Ki was 9.8 µM.

Q: What about the “% agonism” value (MGLUR1a; [5]) of the same molecule?
A: The value was -4%.

Q: What about the inhibition at 10 µM (MGLUR1a; [6]) of the same molecule?
A: The inhibition at 10 µM was 24%.

Q: What about the “% agonism” value (MGLUR2; [5]) of the same molecule?
A: The value was 0%.

Q: And the inhibition at 10 µM (MGLUR2; [6])?
A: Its inhibition at 10 µM is 12%.

Q: And the “% agonism” value (MGLUR6; [5])?
A: Its value is 13%.

Q: What about the inhibition at 10 µM (MGLUR6; [6]) of the same molecule?
A: The inhibition at 10 µM was -17%.

Q: What about the “% agonism” value (MGLUR5; 10 µM B16, normalized to the maximum response of cells treated with 1 mM glutamate or 0.1 mM AP4 alone) of the same molecule?
A: The value was -14%.

Q: And the inhibition at 10 µM (MGLUR5; 10 µM B16, percent difference in maximum activity of cells treated with glutamate or AP4 with vehicle versus B16)?
A: The inhibition at 10 µM was 11%.

Q: What about the Ki (MGLUR5; Figure 2) of the same molecule?
A: The Ki was > 30 µM.

Q: What about the “% agonism” value (MGLUR4; [5]) of the same molecule?
A: Its value is -8%.

Q: What about the inhibition at 10 µM (MGLUR4; [6]) of the same molecule?
A: Its inhibition at 10 µM is 4%.

Q: And the “% agonism” value (MGLUR8; [5])?
A: Its value is -3%.

Q: And the “% inhibition” value (MGLUR8; [6])?
A: Its value is 49%.

Q: What about the “Nile Red staining” value (C. elegans) of the same molecule?
A: The value was “decreased”.

Q: What about the Pharmacological relationship [3] of the same molecule?
A: The Pharmacological relationship was “antagonist”.

Q: What about the “increase in pharyngeal pumping” value (wild-type C. elegans) of the same molecule?
A: The value was 7%–12%.

Q: And the “exposure time” value (wild-type C. elegans)?
A: The value was ≤ 1 h.

Q: And the “effect on the pharyngeal pumping rate” value (wild-type C. elegans; wild-type)?
A: The value was “increased”.
